Measurements from the supplement of paper PMC11208160.

Experiment: recombinant barcode read abundance after kanamycin selection (control-corrected) (log10(CPM+1)); higher = more efficient recombination; sequences stand for … in AGTGCAGAGAAAATCGGCCAGTTTTCTCTGCCTGCAGTCCGCATGCCGT…AGATTTATGCAGCGGACTGCCTTTCTCCCAAAGTGATAAACCGGACAGTATCATGGACCGGTTTTCCCGGTAATCCGTATTTGCAAGGTTGGTTTCACT; site = the 11-nt target
In short: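 Each value is log10(CPM+1). It describes recombination efficiency, taken as averaged, control-corrected counts per million of barcodes at recombinant junctions. The pooled E. coli library paired targets with IS621 bridge RNA target-binding loops, was co-electroporated with a donor plasmid, and was plated twice on chloramphenicol/ampicillin LB agar (control) and twice on chloramphenicol/ampicillin/kanamycin containing 0.1 mM IPTG.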
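Note: IS621 recombinase and bridge RNA in Escherichia coli cells.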

Sequence	recombinant barcode read abundance (log10)
GACAGTACTTGGGTTCTAACCTGTTGCCT (site AACAGTACTAG)	0.165
GACAGTACTTGGGTTCTAACCTGTTGCCT (site CACAGTACTAG)	0.306
GACAGTACTTGGGTTCTAACCTGTTGCCT (site GACAGTACTAG)	0.714
GACAGTACTTGGGTTCTAACCTGTTGCCT (site TACAGTACTAG)	0.79
GACATATCTTGGGTTCTAACCTGTTGCCA (site GACATATCTCA)	0.337
GACATATCTTGGGTTCTAACCTGTTGCCA (site GACATATCTTG)	0.204
GACATATCTTGGGTTCTAACCTGTTGCTT (site ACTGGTCCTCC)	0.0369
GACATATCTTGGGTTCTAACCTGTTGCTT (site GACATATCTAA)	0.358
GACATTCCTTGGGTTCTAACCTGTTGCTT (site CTATGAACTTG)	0.0749
GACATTCCTTGGGTTCTAACCTGTTGCTT (site GACATTCCTAA)	0.21
GACCTACCTTGGGTTCTAACCTGTTGCCT (site GACATACCTAG)	0.0646
GACCTACCTTGGGTTCTAACCTGTTGCCT (site GACCTACCTAG)	1.8
GACCTACCTTGGGTTCTAACCTGTTGCCT (site GACGTACCTAG)	0.27
GACCTACCTTGGGTTCTAACCTGTTGCCT (site GACTTACCTAG)	0.359
GACCTGACTTGGGTTCTAACCTGTTGCCA (site GACCTGACTTG)	0.463
GACCTGACTTGGGTTCTAACCTGTTGCCA (site GACCTGGCTCG)	0.128
GACGAGTCTTGGGTTCTAACCTGTTGCTA (site GACGAGTCTTA)	1.01
GACGAGTCTTGGGTTCTAACCTGTTGCTA (site GGCGAGTCTTA)	0.154
GACGGACCTTGGGTTCTAACCTGTTGCAT (site GACGGACCTAT)	2.13
GACGGACCTTGGGTTCTAACCTGTTGCAT (site TGAAAGACTCG)	0.114
GACGGACCTTGGGTTCTAACCTGTTGCTT (site GACGGACCTAA)	0.832
GACGGACCTTGGGTTCTAACCTGTTGCTT (site GATGGCCCTAA)	0.191

Sequence	recombinant barcode read abundance (log10)
GACGGAGCTTGGGTTCTAACCTGTTGCTG (site GACGGAGCTCA)	1.89
GACGGAGCTTGGGTTCTAACCTGTTGCTG (site GACGGGGCTCT)	0.224
GACGGATCTTGGGTTCTAACCTGTTGCTT (site GACGGATCTAA)	0.557
GACGGATCTTGGGTTCTAACCTGTTGCTT (site GACGGATCTAC)	0.162
GACGGATCTTGGGTTCTAACCTGTTGCTT (site GACGGATCTAG)	0.197
GACGGATCTTGGGTTCTAACCTGTTGCTT (site GACGGATCTAT)	0.15
GACTCTCCTTGGGTTCTAACCTGTTGCCT (site GACTCTCCTAA)	0.21
GACTCTCCTTGGGTTCTAACCTGTTGCCT (site GACTCTCCTAC)	0.0378
GACTCTCCTTGGGTTCTAACCTGTTGCCT (site GACTCTCCTAG)	0.0776
GACTCTCCTTGGGTTCTAACCTGTTGCCT (site GACTCTCCTAT)	0.191
GACTGGCCTTGGGTTCTAACCTGTTGCAG (site ATGGACACTAC)	0.0143
GACTGGCCTTGGGTTCTAACCTGTTGCAG (site GACTGGCCTCT)	0.862
GACTTAACTTGGGTTCTAACCTGTTGCTT (site CCTAAGTCTTG)	0.0154
GACTTAACTTGGGTTCTAACCTGTTGCTT (site GACTTAACTAA)	0.48
GAGAATACTTGGGTTCTAACCTGTTGCGT (site AAGAATACTAG)	0.0615
GAGAATACTTGGGTTCTAACCTGTTGCGT (site GAGAATACTAC)	2.41
GAGAATCCTTGGGTTCTAACCTGTTGCGT (site GAGAATCCTAC)	2.49
GAGAATCCTTGGGTTCTAACCTGTTGCGT (site GAGTACCCTAC)	0.0692
GAGACAACTTGGGTTCTAACCTGTTGCCT (site GAGACAACTAG)	0.173
GAGACAACTTGGGTTCTAACCTGTTGCCT (site GGGACAGCTAG)	0.303
GAGACGACTTGGGTTCTAACCTGTTGCCG (site GAGACGACTCG)	1.61
GAGACGACTTGGGTTCTAACCTGTTGCCG (site GAGATGACTCC)	0.0966

Sequence	recombinant barcode read abundance (log10)
GAGAGATCTTGGGTTCTAACCTGTTGCCT (site GAGAAATCTAG)	0.749
GAGAGATCTTGGGTTCTAACCTGTTGCCT (site GAGACATCTAG)	0.157
GAGAGATCTTGGGTTCTAACCTGTTGCCT (site GAGAGATCTAG)	1.46
GAGAGATCTTGGGTTCTAACCTGTTGCCT (site GAGATATCTAG)	0.117
GAGAGCACTTGGGTTCTAACCTGTTGCCT (site AAGAGCACTAG)	0.256
GAGAGCACTTGGGTTCTAACCTGTTGCCT (site CAGAGCACTAG)	0.603
GAGAGCACTTGGGTTCTAACCTGTTGCCT (site GAGAGCACTAG)	1.4
GAGAGCACTTGGGTTCTAACCTGTTGCCT (site TAGAGCACTAG)	0.548
GAGAGGTCTTGGGTTCTAACCTGTTGCAT (site GAGAGGTCTAA)	0.552
GAGAGGTCTTGGGTTCTAACCTGTTGCAT (site GAGAGGTCTAC)	0.435
GAGAGGTCTTGGGTTCTAACCTGTTGCAT (site GAGAGGTCTAG)	0.458
GAGAGGTCTTGGGTTCTAACCTGTTGCAT (site GAGAGGTCTAT)	1.82
GAGAGGTCTTGGGTTCTAACCTGTTGCTT (site GAGAGGTCTAA)	1.79
GAGAGGTCTTGGGTTCTAACCTGTTGCTT (site GAGAGGTCTAC)	0.202
GAGAGGTCTTGGGTTCTAACCTGTTGCTT (site GAGAGGTCTAG)	0.893
GAGAGGTCTTGGGTTCTAACCTGTTGCTT (site GAGAGGTCTAT)	1.46
GAGCAACCTTGGGTTCTAACCTGTTGCTT (site ATAAGCTCTCG)	0.25
GAGCAACCTTGGGTTCTAACCTGTTGCTT (site GAGCAACCTAA)	0.0979
GAGCAGGCTTGGGTTCTAACCTGTTGCTT (site AGTTCTCCTCG)	0.196
GAGCAGGCTTGGGTTCTAACCTGTTGCTT (site GAGCAGGCTAA)	0.661
GAGCCATCTTGGGTTCTAACCTGTTGCTT (site GAGCCATCTAA)	0.524
GAGCCATCTTGGGTTCTAACCTGTTGCTT (site GAGTCGTCTAA)	0.261

Sequence	recombinant barcode read abundance (log10)
GAGCGCTCTTGGGTTCTAACCTGTTGCCG (site GAGCGCTCTCG)	0.754
GAGCGCTCTTGGGTTCTAACCTGTTGCCG (site GAGCGTTCTAG)	0.269
GAGGACTCTTGGGTTCTAACCTGTTGCCA (site GAGGACTCTAG)	1.46
GAGGACTCTTGGGTTCTAACCTGTTGCCA (site GAGGACTCTCG)	0.263
GAGGACTCTTGGGTTCTAACCTGTTGCCA (site GAGGACTCTGG)	0.824
GAGGACTCTTGGGTTCTAACCTGTTGCCA (site GAGGACTCTTG)	2.27
GAGGCTTCTTGGGTTCTAACCTGTTGCCT (site GAGGCTTCTAG)	0.42
GAGGCTTCTTGGGTTCTAACCTGTTGCCT (site GCGGCTTCTAG)	0.435
GAGGCTTCTTGGGTTCTAACCTGTTGCCT (site GGGGCTTCTAG)	0.184
GAGGCTTCTTGGGTTCTAACCTGTTGCCT (site GTGGCTTCTAG)	0.515
GAGGGAGCTTGGGTTCTAACCTGTTGCAT (site GAGAGAGCTAT)	1.33
GAGGGAGCTTGGGTTCTAACCTGTTGCAT (site GAGCGAGCTAT)	0.171
GAGGGAGCTTGGGTTCTAACCTGTTGCAT (site GAGGGAGCTAT)	2.43
GAGGGAGCTTGGGTTCTAACCTGTTGCAT (site GAGTGAGCTAT)	0.315
GAGGGGACTTGGGTTCTAACCTGTTGCAG (site GAGGGGACTCT)	2.76
GAGGGGACTTGGGTTCTAACCTGTTGCAG (site TCCTTCTCTAG)	0.307
GAGGTATCTTGGGTTCTAACCTGTTGCGT (site GAGGTATCTAC)	0.252
GAGGTATCTTGGGTTCTAACCTGTTGCGT (site GAGGTATCTTG)	0.303
GAGGTATCTTGGGTTCTAACCTGTTGCTT (site GAGGTATCTAA)	0.35
GAGGTATCTTGGGTTCTAACCTGTTGCTT (site GAGGTATCTTA)	0.0893
